Molecular target: not listed separately
Experiment: Inhibition of elastase
Details: not given

| IC50 | SMILES |
| --- | --- |
| > 100000 nM | NCc1cccc(C2CCN(C(=O)c3ccc(C#Cc4ccccn4)o3)CC2)c1.O=C(O)C(F)(F)F |
| > 100000 nM | NCc1cccc(C2CCN(C(=O)c3ccc(C#Cc4ccccc4F)o3)CC2)c1.O=C(O)C(F)(F)F |
| > 100000 nM | NCc1cccc(C2CCN(C(=O)c3ccc(C#Cc4ccccc4)o3)CC2)c1.O=C(O)C(F)(F)F |

Molecular target: T1, Chymase (Homo sapiens, UniProt P23946)
T1 sequence (P23946 whole entry): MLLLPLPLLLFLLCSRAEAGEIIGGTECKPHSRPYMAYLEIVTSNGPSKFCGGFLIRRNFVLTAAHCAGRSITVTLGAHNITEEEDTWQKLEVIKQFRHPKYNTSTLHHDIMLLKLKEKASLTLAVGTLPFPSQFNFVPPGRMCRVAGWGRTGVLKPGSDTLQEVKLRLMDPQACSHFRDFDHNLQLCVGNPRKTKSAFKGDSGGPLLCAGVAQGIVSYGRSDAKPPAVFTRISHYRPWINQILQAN
Experiment: Inhibition of chymase
Details: not given

| IC50 | SMILES |
| --- | --- |
| > 100000 nM | NCc1cccc(C2CCN(C(=O)c3ccc(C#Cc4ccccn4)o3)CC2)c1.O=C(O)C(F)(F)F |
| > 100000 nM | NCc1cccc(C2CCN(C(=O)c3ccc(C#Cc4ccccc4F)o3)CC2)c1.O=C(O)C(F)(F)F |
| > 100000 nM | NCc1cccc(C2CCN(C(=O)c3ccc(C#Cc4ccccc4)o3)CC2)c1.O=C(O)C(F)(F)F |

Test system: not listed separately
Experiment: Oral bioavailability in rat at 10 mg/kg
Type: ADME, organism-based
Details: in vivo

| bioavailability | SMILES |
| --- | --- |
| 0% | NCc1cccc(C2CCN(C(=O)c3ccc(C#Cc4ccccn4)o3)CC2)c1.O=C(O)C(F)(F)F |
| 77% | NCc1cccc(C2CCN(C(=O)c3ccc(C#Cc4ccccc4F)o3)CC2)c1.O=C(O)C(F)(F)F |
| 32% | NCc1cccc(C2CCN(C(=O)c3ccc(C#Cc4ccccc4)o3)CC2)c1.O=C(O)C(F)(F)F |

Test system: not listed separately
Experiment: Cmax in rat at 10 mg/kg, po
Type: ADME, organism-based
Parameters: dose 10 mg/kg, route oral
Details: in vivo

| Cmax | SMILES |
| --- | --- |
| 121 ng/mL | NCc1cccc(C2CCN(C(=O)c3ccc(C#Cc4ccccc4F)o3)CC2)c1.O=C(O)C(F)(F)F |
| 68 ng/mL | NCc1cccc(C2CCN(C(=O)c3ccc(C#Cc4ccccc4)o3)CC2)c1.O=C(O)C(F)(F)F |

Test system: not listed separately
Experiment: Tmax in rat at 10 mg/kg, po
Type: ADME, organism-based
Parameters: dose 10 mg/kg, route oral
Details: in vivo

| Tmax | SMILES |
| --- | --- |
| 3.7 h | NCc1cccc(C2CCN(C(=O)c3ccc(C#Cc4ccccc4F)o3)CC2)c1.O=C(O)C(F)(F)F |
| 3.3 h | NCc1cccc(C2CCN(C(=O)c3ccc(C#Cc4ccccc4)o3)CC2)c1.O=C(O)C(F)(F)F |

Molecular target: not listed separately
Experiment: Inhibition of human recombinant beta tryptase using S-2366 as substrate after 30 mins by spectrophotometry
Details: not given

| SMILES | Ki |
| --- | --- |
| NCc1cccc(C2CCN(C(=O)c3ccc(C#Cc4ccccn4)o3)CC2)c1.O=C(O)C(F)(F)F | 5 nM |
| NCc1cccc(C2CCN(C(=O)c3ccc(C#Cc4ncccc4F)o3)CC2)c1 | 27 nM |
| NCc1cccc(C2CCN(C(=O)c3ccc(C#Cc4ccccc4)o3)CC2)c1.O=C(O)C(F)(F)F | 31 nM |
| NCc1cccc(C2CCN(C(=O)c3ccc(C#Cc4ccc(F)cc4F)o3)CC2)c1 | 67 nM |
| NCc1cccc(C2CCN(C(=O)c3ccc(C#Cc4ccc(Cl)cc4)o3)CC2)c1 | 166 nM |
| NCc1cccc(C2CCN(C(=O)c3ccc(C#Cc4cccs4)o3)CC2)c1 | 236 nM |

Further lines, results first:

| Ki | SMILES |
| --- | --- |
| 157 nM | NCc1cccc(C2CCN(C(=O)c3ccc(C#Cc4ncccn4)o3)CC2)c1 |
| 98 nM | NCc1cccc(C2CCN(C(=O)c3ccc(C#Cc4cccc(F)c4)o3)CC2)c1 |
| 112 nM | Cc1ccc(C#Cc2ccc(C(=O)N3CCC(c4cccc(CN)c4)CC3)o2)cc1 |
| 742 nM | NCc1cccc(C2CCN(C(=O)c3ccc(C#Cc4ccc(F)c(F)c4)o3)CC2)c1 |
| 324 nM | Cc1ccccc1C#Cc1ccc(C(=O)N2CCC(c3cccc(CN)c3)CC2)o1 |
| 101 nM | NCc1cccc(C2CCN(C(=O)c3ccc(C#Cc4ccc(Cl)nc4)o3)CC2)c1 |
| 2770 nM | NCc1cccc(C2CCN(C(=O)c3ccc(C#Cc4cnccn4)o3)CC2)c1 |
| 84 nM | NCc1cccc(C2CCN(C(=O)c3ccc(C#Cc4cccnc4)o3)CC2)c1 |
| 22 nM | NCc1cccc(C2CCN(C(=O)c3ccc(C#Cc4ccccc4Cl)o3)CC2)c1 |
| 279 nM | NCc1cccc(C2CCN(C(=O)c3ccc(C#Cc4ccc(F)cc4)o3)CC2)c1 |
| 327 nM | NCc1cccc(C2CCN(C(=O)c3ccc(C#Cc4ccsc4)o3)CC2)c1 |

Molecular target: Coagulation factor X (Homo sapiens, UniProt P00742)
Sequence (P00742 41-179 limits assumed): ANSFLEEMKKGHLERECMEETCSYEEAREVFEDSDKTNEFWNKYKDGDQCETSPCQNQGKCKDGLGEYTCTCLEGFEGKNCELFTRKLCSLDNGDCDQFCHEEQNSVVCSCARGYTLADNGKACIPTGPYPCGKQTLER
Sequence (P00742 235-488 limits assumed): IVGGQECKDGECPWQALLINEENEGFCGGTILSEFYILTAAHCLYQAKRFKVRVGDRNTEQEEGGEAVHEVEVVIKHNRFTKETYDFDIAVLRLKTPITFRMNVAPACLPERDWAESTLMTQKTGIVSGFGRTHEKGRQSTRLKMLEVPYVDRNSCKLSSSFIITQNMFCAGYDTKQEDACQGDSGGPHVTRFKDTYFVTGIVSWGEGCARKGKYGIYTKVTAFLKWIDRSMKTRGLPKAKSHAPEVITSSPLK
Experiment: Inhibition of Coagulation factor 10a
Details: not given

| IC50 | SMILES |
| --- | --- |
| 9000 nM | NCc1cccc(C2CCN(C(=O)c3ccc(C#Cc4ccccn4)o3)CC2)c1.O=C(O)C(F)(F)F |
| > 100000 nM | NCc1cccc(C2CCN(C(=O)c3ccc(C#Cc4ccccc4F)o3)CC2)c1.O=C(O)C(F)(F)F |
| > 100000 nM | NCc1cccc(C2CCN(C(=O)c3ccc(C#Cc4ccccc4)o3)CC2)c1.O=C(O)C(F)(F)F |

Molecular target: Prothrombin (Homo sapiens, UniProt P00734)
Experiment: Inhibition of thrombin
Details: not given

| IC50 | SMILES |
| --- | --- |
| > 100000 nM | NCc1cccc(C2CCN(C(=O)c3ccc(C#Cc4ccccn4)o3)CC2)c1.O=C(O)C(F)(F)F |
| > 100000 nM | NCc1cccc(C2CCN(C(=O)c3ccc(C#Cc4ccccc4F)o3)CC2)c1.O=C(O)C(F)(F)F |
| > 100000 nM | NCc1cccc(C2CCN(C(=O)c3ccc(C#Cc4ccccc4)o3)CC2)c1.O=C(O)C(F)(F)F |

Test system: not listed separately
Experiment: Inhibition of trypsin
Details: not given

| IC50 | SMILES |
| --- | --- |
| > 100000 nM | NCc1cccc(C2CCN(C(=O)c3ccc(C#Cc4ccccn4)o3)CC2)c1.O=C(O)C(F)(F)F |
| > 100000 nM | NCc1cccc(C2CCN(C(=O)c3ccc(C#Cc4ccccc4F)o3)CC2)c1.O=C(O)C(F)(F)F |
| > 100000 nM | NCc1cccc(C2CCN(C(=O)c3ccc(C#Cc4ccccc4)o3)CC2)c1.O=C(O)C(F)(F)F |

Test system: not listed separately
Experiment: Half life in rat plasma at 2 mg/kg, iv
Details: not given

| half-life | SMILES |
| --- | --- |
| 0.46 h | NCc1cccc(C2CCN(C(=O)c3ccc(C#Cc4ccccn4)o3)CC2)c1.O=C(O)C(F)(F)F |
| 2.2 h | NCc1cccc(C2CCN(C(=O)c3ccc(C#Cc4ccccc4F)o3)CC2)c1.O=C(O)C(F)(F)F |
| 2.5 h | NCc1cccc(C2CCN(C(=O)c3ccc(C#Cc4ccccc4)o3)CC2)c1.O=C(O)C(F)(F)F |

Test system: not listed separately
Experiment: Plasma clearance in rat at 2 mg/kg, iv and 10 mg/kg, po
Details: not given

| clearance | SMILES |
| --- | --- |
| 310 mL/min/kg | NCc1cccc(C2CCN(C(=O)c3ccc(C#Cc4ccccn4)o3)CC2)c1.O=C(O)C(F)(F)F |
| 140 mL/min/kg | NCc1cccc(C2CCN(C(=O)c3ccc(C#Cc4ccccc4F)o3)CC2)c1.O=C(O)C(F)(F)F |
| 85 mL/min/kg | NCc1cccc(C2CCN(C(=O)c3ccc(C#Cc4ccccc4)o3)CC2)c1.O=C(O)C(F)(F)F |

Test system: not listed separately
Experiment: Volume of distribution at steady state in rat at 2 mg/kg, iv and 10 mg/kg, po
Details: in vivo, read-out: Vdss

| Vd | SMILES |
| --- | --- |
| 18.5 L/kg | NCc1cccc(C2CCN(C(=O)c3ccc(C#Cc4ccccc4F)o3)CC2)c1.O=C(O)C(F)(F)F |
| 14.1 L/kg | NCc1cccc(C2CCN(C(=O)c3ccc(C#Cc4ccccc4)o3)CC2)c1.O=C(O)C(F)(F)F |

— ChEMBL document CHEMBL1944527, “Structure-based library design and the discovery of a potent and selective mast cell β-tryptase inhibitor as an oral therapeutic agent” (Bioorg Med Chem Lett, 2012)
